molecular target: SUV420H1 enzyme (Homo sapiens, UniProt Q4FZB7); experiment: TR-FRET SAH SUV420H1 enzyme inhibition assay; format: biochemical; details: Histone Peptide H4(8-30)me1 and SAM, overnight at room temp, TR-FRET detection of SAH, read-out: TR-FRET SAH_SUV420H1 IC50
Summary of the method: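 SUV420H1 (90 nM) preincubated 30 min with compound (3-fold dilutions, 50 to 0.00075 μM), then H4(8-30)me1 peptide 5 nM and SAM 4 nM added, overnight at room temp. SAH product detected by TR-FRET with Tb anti-SAH antibody and Oregon Green-SAH in RIPA buffer, 4 h; IC50 from Hill fit, asymptotes fixed 0-100%.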

Sequence of SUV420H1 enzyme (Q4FZB7 whole entry): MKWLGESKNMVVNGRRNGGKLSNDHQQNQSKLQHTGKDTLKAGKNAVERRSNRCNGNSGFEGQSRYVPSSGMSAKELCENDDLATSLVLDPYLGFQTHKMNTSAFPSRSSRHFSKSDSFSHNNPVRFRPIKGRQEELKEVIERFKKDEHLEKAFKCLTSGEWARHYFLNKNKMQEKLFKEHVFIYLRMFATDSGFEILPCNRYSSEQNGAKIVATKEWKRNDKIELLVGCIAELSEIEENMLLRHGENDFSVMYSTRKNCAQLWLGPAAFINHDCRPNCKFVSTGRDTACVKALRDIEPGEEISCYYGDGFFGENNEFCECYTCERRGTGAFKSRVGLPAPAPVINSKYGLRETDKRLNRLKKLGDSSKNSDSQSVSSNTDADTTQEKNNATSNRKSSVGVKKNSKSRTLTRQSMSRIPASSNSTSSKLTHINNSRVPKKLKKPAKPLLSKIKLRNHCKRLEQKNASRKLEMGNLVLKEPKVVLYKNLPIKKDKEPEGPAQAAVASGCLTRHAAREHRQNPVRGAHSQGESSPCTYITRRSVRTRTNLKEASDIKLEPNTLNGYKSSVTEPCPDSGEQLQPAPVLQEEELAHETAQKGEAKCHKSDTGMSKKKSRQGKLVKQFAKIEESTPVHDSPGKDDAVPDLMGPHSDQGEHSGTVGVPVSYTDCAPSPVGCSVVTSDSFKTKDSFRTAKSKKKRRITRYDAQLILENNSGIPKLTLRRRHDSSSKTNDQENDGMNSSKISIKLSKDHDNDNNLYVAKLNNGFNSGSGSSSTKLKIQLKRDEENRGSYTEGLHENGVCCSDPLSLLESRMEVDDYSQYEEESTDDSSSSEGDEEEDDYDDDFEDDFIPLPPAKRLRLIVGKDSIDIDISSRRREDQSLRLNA

Compound | IC50 [nM]
Cc1cc2cc(C(=O)NCc3cc4cc(Cl)cc(Cn5cnc6c(N)ncnc65)c4[nH]3)ccc2o1 [Example 364, N-({7-[(6-amino-9H-purin-9-yl)methyl]-5-chloro-1H-indol-2-yl}methyl)-2-methyl-1-benzofuran-5-carboxamide] | 3280
COC1CCC(C(=O)NCc2cc3cc(Cl)cc(Cn4cnc5c(N)ncnc54)c3[nH]2)CC1 (stereo not drawn) [Example 134, N-({7-[(6-amino-9H-purin-9-yl)methyl]-5-chloro-1H-indol-2-yl}methyl)-4-methoxycyclohexanecarboxamide] | 1270
COc1ccsc1C(=O)NCc1cc2cc(Cl)cc(Cn3cnc4c(N)ncnc43)c2[nH]1 [Example 159, N-({7-[(6-amino-9H-purin-9-yl)methyl]-5-chloro-1H-indol-2-yl}methyl)-3-methoxythiophene-2-carboxamide] | > 50000
Nc1ncnc2c1ncn2Cc1cc(Cl)cc2cc(CNC(=O)c3ccccc3)[nH]c12 [Example 220, N-({7-[(6-amino-9H-purin-9-yl)methyl]-5-chloro-1H-indol-2-yl}methyl)benzamide] | 4050
Nc1ncnc2c1ncn2Cc1cc(Cl)cc2cc(CNC(=O)c3ccc4nc(O)sc4c3)[nH]c12 [Example 341] | 3030
Nc1ncnc2c1ncn2Cc1cc(Cl)cc2cc(CNC(=O)c3ccc4[nH]nnc4c3)[nH]c12 [Example 332, N-({7-[(6-amino-9H-purin-9-yl)methyl]-5-chloro-1H-indol-2-yl}methyl)-1H-benzotriazole-5-carboxamide] | 2020
Nc1ncnc2c1ncn2Cc1cc(Cl)cc2cc(CNCc3cccc(Cl)c3F)[nH]c12 [Example 218, 9-[(5-chloro-2-{[(3-chloro-2-fluorobenzyl)amino]methyl}-1H-indol-7-yl)methyl]-9H-purin-6-amine] | 2330
COCC(=O)NCc1cc2cc(Cl)cc(Cn3cnc4c(N)ncnc43)c2[nH]1 [Example 95, N-({7-[(6-amino-9H-purin-9-yl)methyl]-5-chloro-1H-indol-2-yl}methyl)-2-methoxyacetamide] | > 50000
COc1cc(C(=O)NCc2cc3cc(Cl)cc(Cn4cnc5c(N)ncnc54)c3[nH]2)ccc1C [Example 300, N-({7-[(6-amino-9H-purin-9-yl)methyl]-5-chloro-1H-indol-2-yl}methyl)-3-methoxy-4-methylbenzamide] | 4150
C=Cc1cc(Cn2cnc3c(N)ncnc32)c2[nH]c(CN)cc2c1 [Example 10, 9-{[2-(aminomethyl)-5-ethenyl-1H-indol-7-yl]methyl}-9H-purin-6-amine] | 1870
CC(C)(C)OC(=O)N1CCC[C@@H]1C(=O)NCc1cc2cc(Cl)cc(Cn3cnc4c(N)ncnc43)c2[nH]1 [Example 124, tert-butyl (2R)-2-[({7-[(6-amino-9H-purin-9-yl)methyl]-5-chloro-1H-indol-2-yl}methyl)carbamoyl]pyrrolidine-1-carboxylate] | 23900
Nc1ncnc2c1ncn2Cc1cc(Cl)cc2cc(CNC(=O)c3ccc[nH]c3=O)[nH]c12 [Example 198, N-({7-[(6-amino-9H-purin-9-yl)methyl]-5-chloro-1H-indol-2-yl}methyl)-2-oxo-1,2-dihydropyridine-3-carboxamide] | 12600
CCN(CC)Cc1cc2cc(Cl)cc(Cn3cnc4c(N)ncnc43)c2[nH]1 [Example 97, 9-({5-chloro-2-[(diethylamino)methyl]-1H-indol-7-yl}methyl)-9H-purin-6-amine] | 11400
Cc1cccc(Cl)c1CNCc1cc2cc(Cl)cc(Cn3cnc4c(N)ncnc43)c2[nH]1 [Example 243] | 5460
Cc1noc(C)c1C(=O)NCc1cc2cc(-c3ccc(C#N)cc3)cc(Cn3cnc4c(N)ncnc43)c2[nH]1 [Example 171, N-({7-[(6-amino-9H-purin-9-yl)methyl]-5-(4-cyanophenyl)-1H-indol-2-yl}methyl)-3,5-dimethyl-1,2-oxazole-4-carboxamide] | 173
N#Cc1ccc(C(=O)NCc2cc3cc(C4=CCNCC4)cc(Cn4cnc5c(N)ncnc54)c3[nH]2)c(F)c1 [Example 286, N-({7-[(6-amino-9H-purin-9-yl)methyl]-5-(1,2,3,6-tetrahydropyridin-4-yl)-1H-indol-2-yl}methyl)-4-cyano-2-fluorobenzamide] | 41.1
Cc1nn(C)cc1C(=O)NCc1cc2cc(Cl)cc(Cn3cnc4c(N)ncnc43)c2[nH]1 [Example 184, N-({7-[(6-amino-9H-purin-9-yl)methyl]-5-chloro-1H-indol-2-yl}methyl)-1,3-dimethyl-1H-pyrazole-4-carboxamide] | 840
Nc1ncnc2c1ncn2Cc1cc(Cl)cc2cc(CNC(=O)c3ccc(Cl)cc3)[nH]c12 [Example 221, N-({7-[(6-amino-9H-purin-9-yl)methyl]-5-chloro-1H-indol-2-yl}methyl)-4-chlorobenzamide] | 6240
Nc1ncnc2c1ncn2Cc1cc(Cl)cc2cc(CNC(=O)c3cccnc3)[nH]c12 [Example 196, N-({7-[(6-amino-9H-purin-9-yl)methyl]-5-chloro-1H-indol-2-yl}methyl)pyridine-3-carboxamide] | 905
Nc1ncnc2c1ncn2Cc1cc(Cl)cc2cc(CNC(=O)c3ccc4ocnc4c3)[nH]c12 [Example 339, N-({7-[(6-amino-9H-purin-9-yl)methyl]-5-chloro-1H-indol-2-yl}methyl)-1,3-benzoxazole-5-carboxamide] | 6870
Cn1ccc2ccc(C(=O)NCc3cc4cc(Cl)cc(Cn5cnc6c(N)ncnc65)c4[nH]3)cc21 [Example 365] | 1880
Cc1noc(C)c1C(=O)NCc1cc2cc(-c3ccc(C(=O)N(C)C)cc3)cc(Cn3cnc4c(N)ncnc43)c2[nH]1 [Example 176, N-({7-[(6-amino-9H-purin-9-yl)methyl]-5-[4-(dimethylcarbamoyl)phenyl]-1H-indol-2-yl}methyl)-3,5-dimethyl-1,2-oxazole-4-carboxamide] | 87.5
Cc1nc2cc(C(=O)NCc3cc4cc(Cl)cc(Cn5cnc6c(N)ncnc65)c4[nH]3)ccc2[nH]1 [Example 363, N-({7-[(6-amino-9H-purin-9-yl)methyl]-5-chloro-1H-indol-2-yl}methyl)-2-methyl-1H-benzimidazole-5-carboxamide] | 4300
Nc1ncnc2c1ncn2Cc1cc(Cl)cc2cc(CNCc3cccc(OCCN4CCCCC4)c3)[nH]c12 [Example 325, 9-({5-chloro-2-[({3-[2-(piperidin-1-yl)ethoxy]benzyl}amino)methyl]-1H-indol-7-yl}methyl)-9H-purin-6-amine] | 3120

Further lines, results first:

IC50 [nM] | Compound
2980 | Cc1ccc(N)cc1C(=O)NCc1cc2cc(Cl)cc(Cn3cnc4c(N)ncnc43)c2[nH]1 [Example 271, 5-amino-N-({7-[(6-amino-9H-purin-9-yl)methyl]-5-chloro-1H-indol-2-yl}methyl)-2-methylbenzamide]
561 | Cn1cc(-c2cc(Cn3cnc4c(N)ncnc43)c3[nH]c(CN)cc3c2)cn1 [Example 18, 9-{[2-(aminomethyl)-5-(1-methyl-1H-pyrazol-4-yl)-1H-indol-7-yl]methyl}-9H-purin-6-amine]
915 | CN(C)C(=O)c1ccc(-c2ccc(Cn3cnc4c(N)ncnc43)c3[nH]c(CN)cc23)cc1 [Example 86, 4-{2-(aminomethyl)-7-[(6-amino-9H-purin-9-yl)methyl]-1H-indol-4-yl}-N,N-dimethylbenzamide]
3330 | Cc1ccccc1-c1cc(Cn2cnc3c(N)ncnc32)c2[nH]c(CN)cc2c1 [Example 32, 9-{[2-(aminomethyl)-5-(2-methylphenyl)-1H-indol-7-yl]methyl}-9H-purin-6-amine]
1280 | Cn1nnc2cc(C(=O)NCc3cc4cc(Cl)cc(Cn5cnc6c(N)ncnc65)c4[nH]3)ccc21 [Example 352, N-({7-[(6-amino-9H-purin-9-yl)methyl]-5-chloro-1H-indol-2-yl}methyl)-1-methyl-1H-benzotriazole-5-carboxamide]
2140 | Nc1ncnc2c1ncn2Cc1cc(Cl)cc2cc(CNC(=O)Cc3cccc(Cl)c3)[nH]c12 [Example 252, N-({7-[(6-amino-9H-purin-9-yl)methyl]-5-chloro-1H-indol-2-yl}methyl)-2-(3-chlorophenyl)acetamide]
632 | COc1ccc(-c2ccc(Cn3cnc4c(N)ncnc43)c3[nH]c(CN)cc23)cc1 [Example 78, 9-{[2-(aminomethyl)-4-(4-methoxyphenyl)-1H-indol-7-yl]methyl}-9H-purin-6-amine]
> 50000 | Nc1ncnc2c1ncn2Cc1cc(Cl)cc2cc(CNC(=O)Cc3ccccc3F)[nH]c12 [Example 256, N-({7-[(6-amino-9H-purin-9-yl)methyl]-5-chloro-1H-indol-2-yl}methyl)-2-(2-fluorophenyl)acetamide]
82.8 | Cc1noc(C)c1C(=O)NCc1cc2cc(-c3ccc(CC#N)cc3)cc(Cn3cnc4c(N)ncnc43)c2[nH]1 [Example 175, N-({7-[(6-amino-9H-purin-9-yl)methyl]-5-[4-(cyanomethyl)phenyl]-1H-indol-2-yl}methyl)-3,5-dimethyl-1,2-oxazole-4-carboxamide]
36900 | CNC(=O)CCc1c[nH]c2c(Cn3cnc4c(N)ncnc43)cccc12 [Example 2, 3-{7-[(6-amino-9H-purin-9-yl)methyl]-1H-indol-3-yl}-N-methylpropanamide]
72.3 | N#Cc1ccc(C(=O)NCc2cc3c(Cl)ccc(Cn4cnc5c(N)ncnc54)c3[nH]2)c(Cl)c1 [Example 282, N-({7-[(6-amino-9H-purin-9-yl)methyl]-4-chloro-1H-indol-2-yl}methyl)-2-chloro-4-cyanobenzamide]
3310 | COc1cccc(CNCc2cc3cc(Cl)cc(Cn4cnc5c(N)ncnc54)c3[nH]2)c1 [Example 249, 9-[(5-chloro-2-{[(3-methoxybenzyl)amino]methyl}-1H-indol-7-yl)methyl]-9H-purin-6-amine]

From patent publication US9932340B2, “Substituted indoles” (AbbVie Inc., priority 2014, dated 2018)
